Experiment [1] deals with T1, AdSS from H. pylori strain 26695 (Helicobacter pylori, UniProt P56137).
T1 construct: made in house; host or cells: E. coli BL21 (DE3)
T1 sequence (P56137 1-411): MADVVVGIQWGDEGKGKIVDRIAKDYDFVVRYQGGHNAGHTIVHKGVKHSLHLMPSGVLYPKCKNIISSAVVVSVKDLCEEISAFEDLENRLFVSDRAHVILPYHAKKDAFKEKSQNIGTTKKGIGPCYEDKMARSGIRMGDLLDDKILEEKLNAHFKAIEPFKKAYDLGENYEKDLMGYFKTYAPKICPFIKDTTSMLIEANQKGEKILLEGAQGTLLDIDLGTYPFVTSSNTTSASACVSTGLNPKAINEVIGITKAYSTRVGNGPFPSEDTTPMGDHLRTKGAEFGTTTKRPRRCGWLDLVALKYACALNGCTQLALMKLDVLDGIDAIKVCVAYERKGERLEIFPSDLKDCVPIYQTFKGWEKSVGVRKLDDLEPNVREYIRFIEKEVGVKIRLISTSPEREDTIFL
Description: AdSS enzyme activity assay (adenylosuccinate formation, 280 nm). It is filed as biochemical. Particulars: for AdSS activity after incubation: 1.23 U/mg in the absence of PLP. The procedure:
Enzymatic activity measurements were carried out in the similar manner as described in Bubić et al. (2018), at 25° C., in cuvettes with an optical path length of 1 cm containing 1 ml of reaction mixture consisting of 20 mM Hepes/NaOH buffer pH 7.7, 1 mM MgSO4 and the substrates, GTP, IMP and Asp. Saturating concentrations of substrates, namely GTP: 0.06 mM, IMP: 0.15 mM and Asp: 5 mM, were used to measure specific activity. The extinction coefficient at 280 nm of 1.17×10^4 M^−1 cm^−1 (adenylosuccinate formation) was used to calculate the concentration of the product formed (Rudolph and Fromm 1969). One unit (U) of AdSS specific activity is defined as μmol of adenylosuccinate produced per minute at 25° C. Specific activity is expressed as units of enzymatic activity per mg of protein (U/mg).
Inhibition of AdSS by PLP was examined first at saturation with all enzyme substrates and with increasing concentrations of the PLP inhibitor.
To determine the extent to which PLP-induced inactivation develops over time, the enzyme at low concentration (0.022 μM) was incubated at 25° C. in Hepes/NaOH buffer pH 7.0, in the presence of 1.11 mM MgSO4, 5.55 mM Asp, 167 μM IMP and PLP at various concentrations (ranging between 0.03 μM and 8.1 μM). The mixture contained all components necessary for the reaction with the exception of GTP, which, according to Dong and Fromm (1990), competes with PLP. Aliquots of 900 μl were taken from the incubated mixture at specified time intervals, placed in a cuvette and 100 μl of 0.6 mM GTP solution was added to initiate the reaction. The enzyme activity was determined and analysed in the known manner as described above.
Exponential decays were fitted to the data obtained for each concentration and the reaction rate constant of the inactivation process, k, and the residual enzymatic activity observed when the system reached equilibrium, A∞, were obtained as fitting parameters. From these parameters, the half-life of the inactivation process activity, t1/2, was calculated. The dependence of these three parameters on PLP concentration is shown in the lower panel of FIG. 12.
The inhibition of AdSS from H. pylori by pyridoxal (PI-h) was studied at saturation with all enzyme substrates and with increasing concentrations of the inhibitor, similar to that for PLP in Example 10a).

The subject of experiment [2] is H. pylori strain M93 (MTZ resistant). The experiment can be described thus: Growth curve method / MIC, resistant strain M93. It counts as cell-based, Helicobacter pylori. Particulars: Helicobacter pylori, strain M93, MTZ resistant. The procedure: The representative PNP inhibitor from H. pylori included in this study was immucillin A. The experiment was conducted using the growth curve method (two-fold serial dilutions in liquid medium). The tested H. pylori strains were cultured in Petri dishes with BHI solid medium supplemented with 10% FBS and 1% H. pylori Selective Supplement antibiotic kit, in anaerostats under microaerophilic conditions (5% 02, 10% CO2, 85% N2) at 37° C. for 3 days. Liquid culture of H. pylori was conducted overnight with shaking at 37° C. under microaerophilic conditions in BHI medium supplemented with 10% FBS and 1% H. pylori Selective Supplement antibiotic kit. Subsequently, for the essential experiment of determining the minimum inhibitory concentration (MIC), double strengthened liquid BHI medium was prepared, that is, supplemented with 20% FBS and a 2% set of H. pylori Selective Supplement antibiotics.
Bacterial proliferation inhibition experiments were carried out in 24-deep-well 2 ml flat-bottomed plates at a solution volume per well of 0.5 ml. In a single well, double strengthened (relative to the concentration planned for testing) solutions of the test inhibitor and double strengthened liquid BHI medium inoculated with H. pylori (10^4-10^5 CFU/ml in the final volume in the well, corresponding to the optical density of the culture OD600=0.05) were mixed together in a 1:1 ratio.
Kanamycin at a concentration of 25 μg/ml (Irie et al., 1997) was used as a positive control, while Mili-Q deionized water and BHI medium not inoculated with bacteria were used as negative controls. Plates were shaken at 37° C., under microaerophilic conditions. […] After 24 hours, the OD600 of samples containing the negative control, i.e. with Mili-Q deionized water, was about 1.2-1.4, corresponding to a bacterial concentration of about […].
In addition, the method proposed by Knezevic et al. (2018) was used to check whether the observed OD600 was from live bacterial cells. For this purpose, an equal volume of Christensen's double strength urea broth (that is, containing twice the concentration of all components) was added to the wells after incubation, and the plates were additionally incubated for 4 hours in an oxygen atmosphere at 37° C. During incubation, in wells with urease produced by live bacteria, urea is converted to ammonia and carbon dioxide, changing the pH of the solution and thus the colour of the phenol red indicator contained in the medium (from orange to purple).
All experiments were performed in triplicate.
The antibacterial activity of two compounds, mefloquine (in the form of hydrochloride) and quinine, described in the literature as potent in vitro inhibitors of the PNP enzyme from Plasmodium falciparum (Dziekan et al., 2019), was tested. Using a two-fold serial dilution method in liquid medium (as described in Example 3), the MIC values for mefloquine and quinine were determined against clinical H. pylori strains resistant to MTZ, CLR and MTZ+CLR (M26, M91, M92 and M93), as well as the reference H. pylori strain 26695. Four clinical H. pylori strains isolated from adults, from primary infections (the subjects had never previously been treated against H. pylori infection) were tested. These strains come from the collection of the Department of Microbiology of the Medical University of Wroclaw and were obtained due to collaboration with Prof. Grażyna Gościniak, MD, PhD. The tested compounds belong to organic substances and are soluble in DMSO. The maximum tested concentration of quinine in H. pylori culture was 0.56 mM, and that of mefloquine was 2.25 mM. […] On each occasion, the effect of DMSO alone on the growth of the H. pylori strains tested was also checked. […] Kanamycin was used as a positive control and Mili-Q deionised water as a negative control. All experiments were carried out in triplicate. […]

[3] abbreviates: 8.1 μM PLP, about 10 minutes of incubation without GTP.

2 compounds from patent publication US20250195498A1, “INHIBITOR OF CELLULAR PURINE NUCLEOTIDE SALVAGE PATHWAY ENZYME FOR USE IN THE TREATMENT AND/OR PREVENTION OF HELICOBACTER PYLORI INFECTION AND/OR DISEASE ASSOCIATED WITH SUCH INFECTION AND PHARMACEUTICAL COMPOSITION COMPRISING THE SAME” (UNIWERSYTET WARSZAWSKI, priority 2022, published 2025) can be followed below.

Each structure is given as a SMILES string. In brackets after ≈: the same amount, converted by molar mass. Several values for one entry are separate records, joined by “and”; a condition that tells them apart may be missing. Identical values can stand only once. Like-named read-outs stand apart in the source and are kept apart here.

On to `Cc1ncc(CO)c(C=O)c1O.Cl` [PI-h, pyridoxal hydrochloride], for which the “effect on AdSS activity” value in experiment [1] (400 μM (maximum used), saturating substrates) is recorded as “no effect on AdSS activity”. Also, the MIC in experiment [2] (read-out: MIC) is 255 µg/mL and 1250 µM; in experiment [2] (read-out: MIC (Table 7)), 1.25 µM.

Compound `Cc1ncc(COP(=O)(O)O)c(C=O)c1O` [PLP, pyridoxal 5′-phosphate] came in with an IC50 in experiment [1] of 13.3 µM. The “AdSS activity after incubation” value in experiment [1] (0.03 μM PLP, about 4 hours of incubation without GTP) was 0.48 U/mg; in experiment [1] (setting [3]), 0.04 U/mg. Besides, in experiment [1] (0.03 μM PLP, enzyme 0.022 μM incubated without GTP, 25° C.), the “inactivation of AdSS” value is “more than 50%”. The “inactivation of the enzyme” value in experiment [1] (1 μM PLP, incubation without GTP) stood at 90%. Moreover, in experiment [1] (setting [3]), the “decrease in AdSS activity” value is recorded as “about 97%”. Also, in experiment [1] (PLP above about 100 μM, saturating substrates, 25° C., pH 7.7), the “decrease of enzyme activity” value stood at 86%. Also, the MIC in experiment [2] (read-out: MIC) was 309 µg/mL and 1250 µM; in experiment [2] (read-out: MIC (Table 7)), 1.25 µM (≈ 0.309 µg/mL).
